In publication PMC6753678, “Fueling Open Innovation for Malaria Transmission-Blocking Drugs: Hundreds of Molecules Targeting Early Parasite Mosquito Stages” (Frontiers in Microbiology, 2019):
Where two headings read alike, the source gives them in different places.

Columns and labels:
[1] = system: 3D7-strain P. falciparum asexual parasites; assay: P. falciparum asexual growth inhibition assay (Pf GIA); format: cell-based, Plasmodium falciparum; settings: dose response confirmation; read-out: Pf asexual growth inhibition assays IC50
Outline: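 0.25% parasitemia, 2% Hct, RPMI/HEPES/hypoxanthine/5% Albumax; compound dose response, 72 h, 37°C, 5% CO2, 5% O2, 90% N2. Freeze-thaw, then LDH assay, A650. % inhibition vs chloroquine (50 μM)/DMSO, mean of 3 independent runs.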

HepG2 cells [2] = assay: HepG2 cytotoxicity assay; settings: for Unified cytotox: HepG2 values of the three screens unified; for IC50: read-out: HepG2 cytotoxicity assay IC50, dose response confirmation
Outline: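 Percent inhibition derived from fluorescent viability readout, normalised to DMSO (negative) and 50 μM doxorubicin (positive). Compound incubation lasted 48 h at 37°C, 5% CO2, with 2,500 HepG2 cells/well in MEM plus 10% FBS and 1% NEAA.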

[3] = system: P. berghei ookinete development; settings: for Is compound selective in assay? Pb ODA active?: 1: YES, 0: NO; for % inhibition, Replicate A / % inhibition, Replicate B: primary screen at 1 μM
[4] = system: P. falciparum female gametocytes; parameters: method as in Miguel-Blanco et al 2017; settings: ref Miguel-Blanco et al 2017; read-out: Pf FGAA IC50; cited from earlier work
HepG2 cells [5] = settings: ref Miguel-Blanco et al 2017, cited from earlier work
[6] = system: P. falciparum female gametocytes; assay: P. falciparum female gametogenesis assay (Pf FGAA); settings: 1: YES, 0: NO
[7] = read-out: Pb ODA IC50, this manuscript
[8] = read-out: Pb Ookinete development assay IC50, dose response confirmation

Row | SMILES | IC50 [1] [µM] | HepG2 cytoxicity (Pb ODA, this manuscript) (HepG2 cells [2]) [µM] | Unified cytotox (HepG2 cells [2]) [µM] | IC50 (HepG2 cells [2]) [µM] | Is compound selective in assay? Pb ODA active? [3] | % inhibition, Replicate A [3] [%] | % inhibition, Replicate B [3] [%] | IC50 [3, 7] [µM] | IC50 [3, 8] [µM] | IC50 [4] [µM] | HepG2 cytoxicity (Pf FGAA screen) (HepG2 cells [5]) [µM] | Is compound selective in assay? Pf FGAA active? [6] | HepG2 cytoxicity (HepG2 cells [5]; HepG2 value reported with the Pf FGAA screen) [µM] | Is compound selective in assay? Pf FGAA active? ([6]; >10-fold selectivity over cytotox)
1 | N#Cc1ccc(Cn2ccc3c4c(N)nc(N)nc4ccc32)cc1 [TCMDC-137820] | 0.022 | 0.0017 | 0.0017 | 0.0017 | 0 (0: NO) | 57.43 | 49.47 | 1.54 | 1.54 | 1.06 | <0.0017 | 0 (0: NO) |  | 
2 | Cc1ccc(S(=O)(=O)N(CCCNCc2cccc(O)c2)c2ccccc2)cc1 [TCMDC-138022] | 0.124 | 34.67 | 39.67 | 34.7 | 1 (1: YES) | 53.17 | 87.34 | 1.48 | 1.48 | 1.14 | 44.67 | 1 (1: YES) |  | 
3 | CC(C)(C)CNCC(C)(C)c1nc(-c2ccc(Cl)c(O)c2)c(-c2ccncc2)[nH]1.Cl [TCMDC-140549] | 0.817 | 12.02 | 11.83 | 12 | 0 (0: NO) | 58.06 | 49.80 | 1.35 | 1.35 | 1.01 | 11.63 | 1 (1: YES) |  | 
4 | CC(C)(CN)c1nc(-c2ccc(Br)c(O)c2)c(-c2ccncc2)[nH]1.Cl [TCMDC-140680] | 1.55 | 47.32 | 46.57 | 47.3 | 1 (1: YES) | 97.33 | 90.28 | 1.93 | 1.93 | 0.84 | 45.82 | 1 (1: YES) |  | 
5 | CC(C)(CNC(=O)[C@H]1CCCCN1)c1nc(-c2ccc(Cl)c(O)c2)c(-c2ccncc2)[nH]1.Cl [TCMDC-141070] | 0.818 | 61.66 | 45.31 | 61.7 | 1 (1: YES) | 24.32 | 51.52 |  | 2.57 | 0.53 | 28.96 | 1 (1: YES) |  | 
6 | Cl.NCC1(c2nc(-c3ccc(Cl)c(O)c3)c(-c3ccncc3)[nH]2)CCCCC1 [TCMDC-141154] | 1.48 | 46.77 | 29.34 | 46.8 | 1 (1: YES) | 57.75 | 53.53 | 1.01 | 1 | 0.21 | 11.90 | 1 (1: YES) |  | 
7 | CC(C)(CN)c1cc(-c2ccc(Cl)c(O)c2)c(-c2ccncc2)o1.Cl [TCMDC-141334] | 1.62 | 20.65 | 15.32 | 20.7 | 1 (1: YES) | 59.21 | 49.94 | 1.39 | 1.39 | 0.42 | 9.98 | 1 (1: YES) |  | 
8 | O=C(Nc1ccc(Cl)cc1)c1cc(Cl)cc2nc(C(F)(F)F)[nH]c12 [TCMDC-141586] | 1.1 | 2.04 | 2.43 | 2.04 | 0 (0: NO) | 65.74 | 42.68 | 4.37 | 4.37 | 1.7 | 2.82 | 0 (0: NO) |  | 
9 | O=c1c(NCCCN(Cc2ccc(F)cc2)c2ccccn2)c(NCc2cccnc2)c1=O [TCMDC-142311] |  |  |  |  |  |  |  |  |  | 0.36 |  |  | >100 | 1 (1: YES)
